The text below walks through data of ChEMBL document CHEMBL3853300, “Synthesis of α-santonin derived acetyl santonous acid triazole derivatives and their bioevaluation for T and B-cell proliferation” (Eur J Med Chem, 2016).

The nature of data set [1]: Immunosuppressive activity in Balb/c mouse B cells assessed as inhibition of LPS-induced cell proliferation at 10 uM after 48 hrs by MTT assay relative to control. Type of data set: functional.
The species named for data set [2] is Mus musculus. The experiment in a line: Cytotoxicity against Balb/c mouse T cells assessed as decrease in cell viability at 1 uM after 48 hrs by MTT assay. Type of data set: toxicity, cell-based. In general terms: Tetrazolium assays rely on reduction of a dye to a coloured formazan, in cell work by metabolically active cells.
Data set [3] is filed under the species Mus musculus. Kind of data set: Cytotoxicity against Balb/c mouse B cells assessed as decrease in cell viability at 10 uM after 48 hrs by MTT assay. Type of data set: toxicity, cell-based.
Data set [4] in a line: Immunosuppressive activity in Balb/c mouse T cells assessed as inhibition of ConA-induced cell proliferation at 100 uM after 48 hrs by MTT assay relative to control. Type of data set: functional.
The species named for data set [5] is Mus musculus. Kind of data set: Cytotoxicity against Balb/c mouse T cells assessed as decrease in cell viability at 100 uM after 48 hrs by MTT assay. Type of data set: toxicity, cell-based.
For data set [6], the species on record is Mus musculus. Kind of data set: Cytotoxicity against Balb/c mouse T cells assessed as decrease in cell viability at 10 uM after 48 hrs by MTT assay. Type of data set: toxicity, cell-based.
The test system of the next data set is T-cell. The experiment in a line: Immunosuppressive activity in Balb/c mouse T cells assessed as inhibition of ConA-induced cell proliferation after 48 hrs by MTT assay relative to control. Type of data set: functional, cell-based.
A short description of data set [7]: Immunosuppressive activity in Balb/c mouse T cells assessed as inhibition of ConA-induced cell proliferation at 1 uM after 48 hrs by MTT assay relative to control. Type of data set: functional.
A further data set concerns B. Kind of data set: Immunosuppressive activity in Balb/c mouse B cells assessed as inhibition of LPS-induced cell proliferation after 48 hrs by MTT assay relative to control. Type of data set: functional, cell-based.
A short description of data set [8]: Immunosuppressive activity in Balb/c mouse T cells assessed as inhibition of ConA-induced cell proliferation at 10 uM after 48 hrs by MTT assay relative to control. Type of data set: functional.
The species entered for data set [9] is Mus musculus. Kind of data set: Cytotoxicity against Balb/c mouse B cells assessed as decrease in cell viability at 100 uM after 48 hrs by MTT assay. Type of data set: toxicity, cell-based.
For data set [10], the species on record is Mus musculus. The experiment in a line: Cytotoxicity against Balb/c mouse B cells assessed as decrease in cell viability at 1 uM after 48 hrs by MTT assay. Type of data set: toxicity, cell-based.
The nature of data set [11]: Immunosuppressive activity in Balb/c mouse B cells assessed as inhibition of LPS-induced cell proliferation at 1 uM after 48 hrs by MTT assay relative to control. Type of data set: functional.
A short description of data set [12]: Immunosuppressive activity in Balb/c mouse B cells assessed as inhibition of LPS-induced cell proliferation at 100 uM after 48 hrs by MTT assay relative to control. Type of data set: functional.

Take `CC(=O)Oc1cc(C)c2c(c1C)C[C@H]([C@@H](C)C(=O)OCc1cn(-c3cc(I)ccc3C)nn1)CC2`: the inhibition – broadly, the percentage by which the read-out fell short of the control – at 10 µM in data set [1] was found to be 34.6%; in data set [8], 38.2%. Moreover, the Activity entry in the data set listed under Mus musculus [2] is recorded as “Non-Toxic”; in the data set listed under Mus musculus [3], “Toxic”; in the data set listed under Mus musculus [5], “Toxic”; in the data set filed under Mus musculus [6], “Toxic”; in the data set filed under Mus musculus [9], “Toxic”; in the data set filed under Mus musculus [10], “Non-Toxic”. In addition, the inhibition at 100 µM in data set [4] was determined as 26.5%; in [12] it was 28%. Moreover, the inhibition entry with T-cell and in the data set on B was “Dose-dependent effect” each time. Also, the inhibition at 1 µM amounted to 34.5% in [7] and 39% in [11].

As for `CC(=O)Nc1ccc(-n2cc(COC(=O)[C@H](C)[C@@H]3CCc4c(C)cc(OC(C)=O)c(C)c4C3)nn2)cc1`, the results for the inhibition at 10 µM in data set [1] and in [8] were 31.3% and 50%, respectively. Further, the Activity entry in the data set listed under Mus musculus [2], in the data set listed under Mus musculus [3], in the data set filed under Mus musculus [5], in the data set filed under Mus musculus [6], in the data set listed under Mus musculus [9] and in the data set listed under Mus musculus [10] was “Toxic” each time. Moreover, the inhibition at 100 µM in [4] is 33.8%; in data set [12], 39%. Besides, the inhibition result in the data set with T-cell and in the data set with B was “Dose-dependent effect” each time. The values for the inhibition at 1 µM in data set [7] and in [11] were 22.1% and 24.2%, respectively.

For the compound `COc1ccccc1-n1cc(COC(=O)[C@H](C)[C@@H]2CCc3c(C)cc(OC(C)=O)c(C)c3C2)nn1`, the inhibition at 10 µM in data set [1] is 32.4%; in data set [8], 33.1%. The Activity entry in the data set listed under Mus musculus [2] was “Toxic”; in the data set listed under Mus musculus [3], “Non-Toxic”; in the data set listed under Mus musculus [5] it was “Non-Toxic”; in the data set listed under Mus musculus [6], “Non-Toxic”; in the data set listed under Mus musculus [9], “Non-Toxic”; in the data set filed under Mus musculus [10] it was “Toxic”. For the same compound, the inhibition at 100 µM is 29.4% in data set [4] and 6.59% in data set [12]. The inhibition result with T-cell and with B was “Dose-dependent effect” throughout. In addition, the inhibition at 1 µM stood at 8.08% in data set [7] and 27.5% in data set [11].

In the case of `CCCCn1cc(COC(=O)[C@H](C)[C@@H]2CCc3c(C)cc(OC(C)=O)c(C)c3C2)nn1`, the inhibition at 10 µM in data set [1] came to 29.9%; in data set [8], 24%. Moreover, the Activity result was “Non-Toxic” in the data set filed under Mus musculus [2]; “Toxic” in the data set filed under Mus musculus [3]; “Toxic” in the data set filed under Mus musculus [5]; “Toxic” in the data set filed under Mus musculus [6]; “Toxic” in the data set listed under Mus musculus [9]; “Non-Toxic” in the data set filed under Mus musculus [10]. Moreover, the inhibition at 100 µM in [4] is 41.3%; in data set [12] it was 44.2%. In addition, the inhibition entry in the data set on T-cell and in the data set with B was “Dose-dependent effect” throughout. In addition, the inhibition at 1 µM in data set [7] was 21.4%; in data set [11] it was 31.2%.

On to `CC(=O)Oc1cc(C)c2c(c1C)C[C@H]([C@@H](C)C(=O)OCc1cn(-c3ccc(CO)cc3)nn1)CC2`, for which the inhibition at 10 µM was 35.7% in [1] and 37.5% in data set [8]. Also, the Activity result in the data set listed under Mus musculus [2], in the data set filed under Mus musculus [3], in the data set listed under Mus musculus [5], in the data set filed under Mus musculus [6], in the data set filed under Mus musculus [9] and in the data set filed under Mus musculus [10] was “Toxic” each time. For the same compound, the inhibition at 100 µM worked out at 5.88% in data set [4] and 11.5% in data set [12]. In addition, the inhibition result in the data set on T-cell and with B was “Dose-dependent effect” throughout. The inhibition at 1 µM in data set [7] and in data set [11] was 40% in each case.

Consider `CC(=O)Oc1cc(C)c2c(c1C)C[C@H]([C@@H](C)C(=O)OCc1cn(-c3ccccc3Cl)nn1)CC2`, for which the inhibition at 10 µM was 30.3% in data set [1] and 17.6% in [8]. The Activity result in the data set filed under Mus musculus [2], in the data set listed under Mus musculus [3], in the data set filed under Mus musculus [5], in the data set listed under Mus musculus [6], in the data set filed under Mus musculus [9] and in the data set filed under Mus musculus [10] was “Toxic” throughout. For the same compound, the inhibition at 100 µM in [4] stood at 30.6%; in [12], 37.7%. For the same compound, the inhibition result with T-cell and in the data set with B was “Dose-dependent effect” each time. For the same compound, the inhibition at 1 µM in data set [7] came out at 5.55%; in [11] it was 33.7%.

For `CC(=O)Oc1cc(C)c2c(c1C)C[C@H]([C@@H](C)C(=O)OCc1cn(-c3ccc(Cl)cc3)nn1)CC2`, the inhibition at 10 µM in [1] is 25.1%; in data set [8] it was 28.7%. Besides, the Activity result in the data set listed under Mus musculus [2] was “Toxic”; in the data set filed under Mus musculus [3], “Non-Toxic”; in the data set listed under Mus musculus [5] it was “Toxic”; in the data set filed under Mus musculus [6] it was “Non-Toxic”; in the data set filed under Mus musculus [9] it was “Toxic”; in the data set filed under Mus musculus [10], “Toxic”. Besides, the results for the inhibition at 100 µM in data set [4] and in data set [12] were 13% and 34.3%, respectively. In addition, the inhibition result with T-cell and in the data set with B was “Dose-dependent effect” each time. Also, the values for the inhibition at 1 µM in [7] and in data set [11] were 37% and 34.3%, respectively.

For `CC(=O)Oc1cc(C)c2c(c1C)C[C@H]([C@@H](C)C(=O)OCc1cn(-c3ccccc3CO)nn1)CC2`, the inhibition at 10 µM came to 64.1% in [1] and 32.6% in [8]. Also, the Activity result in the data set listed under Mus musculus [2], in the data set listed under Mus musculus [3], in the data set listed under Mus musculus [5], in the data set listed under Mus musculus [6], in the data set listed under Mus musculus [9] and in the data set listed under Mus musculus [10] was “Toxic” in each case. For the same compound, the inhibition at 100 µM in data set [4] worked out at 81.1%; in [12], 53.4%. Besides, the inhibition result with T-cell and in the data set on B was “Dose-dependent effect” in each case. The inhibition at 1 µM in data set [7] worked out at 17.4%; in data set [11] it was 60.3%.

Take `CCCCCn1cc(COC(=O)[C@H](C)[C@@H]2CCc3c(C)cc(OC(C)=O)c(C)c3C2)nn1`: the inhibition at 10 µM in [1] was 41.9%; in data set [8], 27.6%. In addition, the Activity result in the data set listed under Mus musculus [2], in the data set filed under Mus musculus [3], in the data set listed under Mus musculus [5], in the data set listed under Mus musculus [6], in the data set listed under Mus musculus [9] and in the data set listed under Mus musculus [10] was “Toxic” each time. For the same compound, the inhibition at 100 µM in data set [4] amounted to 30.6%; in [12], 43.1%. Besides, the inhibition result in the data set on T-cell and with B was “Dose-dependent effect” throughout. For the same compound, the values for the inhibition at 1 µM in [7] and in data set [11] were 15.6% and 42.4%, respectively.

On to `CC(=O)Oc1cc(C)c2c(c1C)C[C@H]([C@@H](C)C(=O)OCc1cn(-c3ccc(NC(=O)c4ccccc4)cc3)nn1)CC2`, for which the figures for the inhibition at 10 µM in [1] and in [8] were 35.2% and 30.9%, respectively. Further, the Activity result in the data set listed under Mus musculus [2] is “Non-Toxic”; in the data set listed under Mus musculus [3], “Toxic”; in the data set listed under Mus musculus [5], “Non-Toxic”; in the data set listed under Mus musculus [6], “Toxic”; in the data set listed under Mus musculus [9], “Non-Toxic”; in the data set listed under Mus musculus [10], “Non-Toxic”. Besides, the inhibition at 100 µM was determined as 38.2% in data set [4] and 19.2% in data set [12]. The inhibition result with T-cell and with B was “Dose-dependent effect” each time. The inhibition at 1 µM in data set [7] is 7.35%; in [11], 36.8%.

With `CC(=O)Oc1cc(C)c2c(c1C)C[C@H]([C@@H](C)C(=O)OCc1cn(-c3cccnc3Cl)nn1)CC2`, the inhibition at 10 µM in data set [1] came to 15.4%; in data set [8] it was 25%. Also, the Activity entry in the data set filed under Mus musculus [2] is given as “Toxic”; in the data set listed under Mus musculus [3] it was “Toxic”; in the data set listed under Mus musculus [5] it was “Non-Toxic”; in the data set listed under Mus musculus [6] it was “Toxic”; in the data set filed under Mus musculus [9], “Non-Toxic”; in the data set listed under Mus musculus [10], “Toxic”. Further, the inhibition at 100 µM in data set [4] is 17.6%; in data set [12], 22.5%. Besides, the inhibition entry with T-cell and in the data set on B was “Dose-dependent effect” each time. Also, the results for the inhibition at 1 µM in [7] and in [11] were 5.88% and 30.8%, respectively.
